Measured values as given in patent publication US7439251B2, “Methods and compositions for treatment of central and peripheral nervous system disorders and novel compounds useful therefor” (Israel Institute for Biological Research, priority 2002, dated 2008).
Entries after “also recorded” stand apart in the source; their conditions may differ.

Key:
human M5 receptor = molecular target: T1, human M5 receptor (Homo sapiens, UniProt P08912); assay: Arachidonic acid (AA) release, human M5; type: cell-based
T1 construct: expressed in transfected cells
T1 sequence (P08912 whole entry): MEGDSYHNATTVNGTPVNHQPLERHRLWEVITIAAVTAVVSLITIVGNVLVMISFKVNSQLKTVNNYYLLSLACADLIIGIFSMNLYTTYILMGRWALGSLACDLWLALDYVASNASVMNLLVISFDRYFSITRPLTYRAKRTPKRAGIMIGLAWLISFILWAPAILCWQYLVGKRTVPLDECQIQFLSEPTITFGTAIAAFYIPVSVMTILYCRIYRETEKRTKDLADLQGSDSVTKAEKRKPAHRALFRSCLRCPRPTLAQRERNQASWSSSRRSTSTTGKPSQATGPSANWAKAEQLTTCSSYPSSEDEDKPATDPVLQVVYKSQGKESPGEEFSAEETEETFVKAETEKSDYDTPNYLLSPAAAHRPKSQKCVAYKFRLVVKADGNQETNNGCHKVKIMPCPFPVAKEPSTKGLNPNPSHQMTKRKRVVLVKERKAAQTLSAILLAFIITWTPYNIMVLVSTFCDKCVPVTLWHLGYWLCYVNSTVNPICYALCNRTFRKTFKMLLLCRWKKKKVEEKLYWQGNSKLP

[1] = system: adenosine A1, A2A, A3; alpha 1, alpha 2, beta 1; AT1; BZD; B2; CCKA; D1, D2S; ETA; GABA; GAL2; IL-8B; CCR1; H1, H2; MC4; ML1; NK2, NK3; Y1, Y2; NT1; opiate …; assay: Selectivity binding panel for AF292; conditions: 10 μM
CPY2D6 = CPY2D6 (Homo sapiens, UniProt P10635); assay: P450 inhibition, microtiter plate; type: in vitro ADME; conditions: up to 10 μM
Chain of CPY2D6 (P10635 whole entry): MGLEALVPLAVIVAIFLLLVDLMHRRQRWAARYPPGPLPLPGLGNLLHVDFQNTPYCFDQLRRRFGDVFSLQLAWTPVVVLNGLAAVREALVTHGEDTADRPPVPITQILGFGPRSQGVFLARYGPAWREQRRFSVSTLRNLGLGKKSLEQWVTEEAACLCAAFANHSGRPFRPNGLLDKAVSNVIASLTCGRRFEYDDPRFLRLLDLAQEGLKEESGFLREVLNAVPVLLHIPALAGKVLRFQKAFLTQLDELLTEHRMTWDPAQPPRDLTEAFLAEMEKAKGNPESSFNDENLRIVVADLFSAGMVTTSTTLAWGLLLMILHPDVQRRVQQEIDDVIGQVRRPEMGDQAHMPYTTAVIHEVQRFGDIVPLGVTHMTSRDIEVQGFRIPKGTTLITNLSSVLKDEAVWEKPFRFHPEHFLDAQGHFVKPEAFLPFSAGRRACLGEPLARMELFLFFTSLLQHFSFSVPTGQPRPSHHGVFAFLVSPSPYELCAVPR
Description: (§1) Cytochrome P450 activity can be an indicator for potential drug-drug interactions. AF292 was evaluated in a microtiter plate assay for P450 inhibition.

CYP1A2 = CYP1A2 (Homo sapiens, UniProt P05177); assay: P450 inhibition, microtiter plate; type: in vitro ADME; conditions: up to 10 μM
Chain of CYP1A2 (P05177 whole entry): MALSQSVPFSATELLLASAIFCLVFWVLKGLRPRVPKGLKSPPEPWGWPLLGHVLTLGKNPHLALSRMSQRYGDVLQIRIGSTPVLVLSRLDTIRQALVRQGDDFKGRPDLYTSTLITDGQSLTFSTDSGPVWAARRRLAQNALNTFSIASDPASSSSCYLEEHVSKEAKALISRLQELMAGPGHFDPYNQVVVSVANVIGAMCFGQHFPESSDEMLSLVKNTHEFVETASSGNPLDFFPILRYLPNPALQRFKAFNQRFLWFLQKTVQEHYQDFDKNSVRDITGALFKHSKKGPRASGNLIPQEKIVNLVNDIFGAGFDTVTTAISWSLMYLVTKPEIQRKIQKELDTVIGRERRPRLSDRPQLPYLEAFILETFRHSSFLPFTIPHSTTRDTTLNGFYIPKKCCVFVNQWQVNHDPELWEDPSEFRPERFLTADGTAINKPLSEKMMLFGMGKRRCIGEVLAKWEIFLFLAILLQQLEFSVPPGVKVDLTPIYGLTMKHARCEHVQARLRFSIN
Description: as §1

CYP2C19 = CYP2C19 (Homo sapiens, UniProt P33261); assay: P450 inhibition, microtiter plate; type: in vitro ADME; conditions: up to 10 μM
Chain of CYP2C19 (P33261 whole entry): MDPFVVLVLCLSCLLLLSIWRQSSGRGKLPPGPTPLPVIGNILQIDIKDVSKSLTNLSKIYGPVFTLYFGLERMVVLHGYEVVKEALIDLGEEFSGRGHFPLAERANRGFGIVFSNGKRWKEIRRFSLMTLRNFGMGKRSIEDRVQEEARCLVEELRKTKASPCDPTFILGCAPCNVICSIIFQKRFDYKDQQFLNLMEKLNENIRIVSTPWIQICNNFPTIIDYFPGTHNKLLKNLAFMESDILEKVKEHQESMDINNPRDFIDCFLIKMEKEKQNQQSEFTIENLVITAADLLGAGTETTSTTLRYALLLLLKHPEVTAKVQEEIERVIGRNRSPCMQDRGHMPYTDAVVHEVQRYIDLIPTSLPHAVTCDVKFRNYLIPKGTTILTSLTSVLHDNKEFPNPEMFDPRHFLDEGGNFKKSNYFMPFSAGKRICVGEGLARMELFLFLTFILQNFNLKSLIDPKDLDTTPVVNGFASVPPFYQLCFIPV
Description: as §1

CYP2C9 = CYP2C9 (Homo sapiens, UniProt P11712); assay: P450 inhibition, microtiter plate; type: in vitro ADME; conditions: up to 10 μM
Chain of CYP2C9 (P11712 whole entry): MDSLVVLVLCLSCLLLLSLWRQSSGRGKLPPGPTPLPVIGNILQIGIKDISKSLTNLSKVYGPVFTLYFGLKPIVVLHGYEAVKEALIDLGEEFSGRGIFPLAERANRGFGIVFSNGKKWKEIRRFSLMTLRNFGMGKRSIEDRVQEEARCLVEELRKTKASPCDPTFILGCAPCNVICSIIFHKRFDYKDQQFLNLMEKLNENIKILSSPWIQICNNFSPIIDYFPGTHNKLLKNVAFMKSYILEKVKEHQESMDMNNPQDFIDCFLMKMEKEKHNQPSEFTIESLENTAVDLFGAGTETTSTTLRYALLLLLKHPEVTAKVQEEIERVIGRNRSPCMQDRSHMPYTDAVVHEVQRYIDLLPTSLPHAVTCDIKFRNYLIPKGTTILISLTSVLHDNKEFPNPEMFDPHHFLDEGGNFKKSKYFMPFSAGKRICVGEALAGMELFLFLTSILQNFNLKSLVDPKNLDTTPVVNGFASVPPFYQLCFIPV
Description: as §1

CYP3A4 = CYP3A4 (Homo sapiens, UniProt P08684); assay: P450 inhibition, microtiter plate; type: in vitro ADME; conditions: up to 10 μM
Chain of CYP3A4 (P08684 whole entry): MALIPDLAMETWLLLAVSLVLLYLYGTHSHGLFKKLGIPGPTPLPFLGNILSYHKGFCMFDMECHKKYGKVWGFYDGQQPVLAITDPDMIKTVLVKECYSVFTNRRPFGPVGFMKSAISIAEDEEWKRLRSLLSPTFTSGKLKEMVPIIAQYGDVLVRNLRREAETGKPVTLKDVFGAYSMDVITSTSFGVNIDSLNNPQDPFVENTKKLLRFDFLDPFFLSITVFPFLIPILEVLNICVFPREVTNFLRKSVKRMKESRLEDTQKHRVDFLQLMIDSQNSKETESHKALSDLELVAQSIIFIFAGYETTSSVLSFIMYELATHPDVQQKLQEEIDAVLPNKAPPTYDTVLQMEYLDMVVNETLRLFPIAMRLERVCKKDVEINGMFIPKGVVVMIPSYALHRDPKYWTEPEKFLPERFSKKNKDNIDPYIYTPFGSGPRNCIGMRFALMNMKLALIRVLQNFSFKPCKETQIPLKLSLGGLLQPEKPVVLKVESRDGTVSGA
Description: as §1

[2] = system: Human α-glycoprotein (AGP); assay: Protein binding, human α-glycoprotein; type: in vitro ADME; conditions: 10 μM
Description: Protein binding studies were carried out in human plasma, α1-glycoprotein, human serum […] (HSA), and Dulbecco's Phosphate Buffered Saline (PBS). AF292 was added to a final concentration of 10 μM. […] (μM) and in human α-glycoprotein (AGP), (see Table 1).

Aβ / γ-secretase = assay: Aβ levels in primary rat cortical neurons infected with Semliki Forest virus encoding human APP695, C99 or C111; type: cell-based
Description: The mechanism of Aβ modulation was tested using C99 (and C111) that are truncated constructs generated from APP. Unlike APP, C99/C111 are direct substrates for γ-secretase. With both constructs it is possible to directly assay for γ-secretase activity, while with APP this is not possible. Both constructs are—as compared to APP—inefficient substrates for […]. Synergistc effects were also evaluated with CDX (methyl-β-cyclodextrin), an agent which extracts cholesterol from the plasma membrane. CDX inhibits also Aβ production CDX-treated cells were treated in addition to the respective muscarinic agonist for 5 min to reduce the cholesterol content.

[3] = molecular target: muscarinic receptors (QNB, rat cerebellar membranes) (Rattus norvegicus, UniProt P10980); conditions: read-out: QNB binding, Ki
Chain of muscarinic receptors (QNB, rat cerebellar membranes) (P10980 whole entry): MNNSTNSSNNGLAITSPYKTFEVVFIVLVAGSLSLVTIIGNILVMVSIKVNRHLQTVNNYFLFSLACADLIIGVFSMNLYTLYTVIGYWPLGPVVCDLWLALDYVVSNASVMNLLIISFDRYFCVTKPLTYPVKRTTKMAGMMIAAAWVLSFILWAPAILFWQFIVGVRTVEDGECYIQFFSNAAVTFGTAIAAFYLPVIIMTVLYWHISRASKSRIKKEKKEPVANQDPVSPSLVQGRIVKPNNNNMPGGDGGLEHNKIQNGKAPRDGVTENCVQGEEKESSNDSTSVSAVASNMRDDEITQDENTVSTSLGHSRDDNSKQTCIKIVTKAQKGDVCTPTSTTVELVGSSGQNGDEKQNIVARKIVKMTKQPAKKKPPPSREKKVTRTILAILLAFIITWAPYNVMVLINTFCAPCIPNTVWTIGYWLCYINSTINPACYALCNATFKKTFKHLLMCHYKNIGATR

[4] = pKa and free base fraction at CSF pH; conditions: pH 7.35 (CSF), calculated from pKa
Description: For such compounds at the relevant pH of 7.35, only 2.2% are in non-ionized form. […] This calculation was based on the brain weight (2 gr) vs. total plasma volume (14 ml).

Compound	AA release, agonist activity (human M5 receptor)	binding to other receptors, channels and transporter [1]	P450 inhibition (CPY2D6)	P450 inhibition (CYP1A2)	P450 inhibition (CYP2C19)	P450 inhibition (CYP2C9)	P450 inhibition (CYP3A4)	Protein Binding [2]	reduction of the release of Aβ-like fragments (3-4 Kda) (Aβ / γ-secretase)	p3 fragment (Aβ / γ-secretase; 1 mM, vs control)	Aβ with cholesterol lowering agent CDX (Aβ / γ-secretase; with CDX (5 mM))	Ki [3] [µM]	% of the compound in free base form [4] [%]
CC[C@@H]1SC2(CCNCC2)NC1=O [AF292, (S)-2-Ethyl-1-thia-4,8-diaza-spiro[4.5]decan-3-one]	inactive as an agonist; also recorded: PI, AA: M5 mAChR - no effect as agonist	no binding at all	did not induce significant	did not induce significant	did not induce significant	did not induce significant	did not induce significant	Human α-glycoprotein (AGP) = 0%					
CC[C@@H]1SC2(CCN(C)CC2)NC1=O [AF267B, (S)-2-ethyl-8-methyl-1-thia-4,8-diaza-spiro[4.5]decan-3-one]									approximately 50%	complete loss	undetectable Aβ levels	45.2 ± 10.8	26.2
